US10576049B1, “Composition for improving function of aortic endothelial cell and use thereof” (XI'AN JIAOTONG UNIVERSITY, priority 2018, dated 2020)

Assays:
Format in all cases: cell-based
[1] = test system: interleukin-6 (IL-6) mRNA in human aortic endothelial cells (HAEC); test: IL-6 mRNA level detection (RT-PCR) in palmitic acid-induced inflammation of human aortic endothelial cells; conditions: 500 μM palmitic acid 24 h, versus control group, HAEC (FIG. 1)
Method: (§2) In each of the three experiment groups, the cells were respectively cultured at an atmosphere of 95% air and 5% CO2 at 37° C. in wells of a 12-well cell culture plate for the following mRNA level detection, and in wells of a 6-well cell culture plate for the following protein detection. After the cell density of the three experiment groups were all cultured to 40% to 50%, the composition was added to the cells of group III. The composition was comprised of the acetic acid, lactic acid, polyoxyethylene castor oil (EL-12), and disodium alkyl polyoxyethylene sulfosuccinate (A-102) in the mass ratio of 1:2.2:1.8:1.5. Different concentrations of the composition were obtained by diluting the composition by adding a solvent having a volume of 20, 100, or 1000 times of the composition. […]
(§3) The detecting of mRNA levels corresponding to interleukin-6 and matrix metalloproteinase-1 was carried out by using reverse transcription RNA and real-time quantitative polymerase chain reaction (PCR), and the specific method is as follows:
(§4) The medium for cell culture in the wells was removed. […] The concentration of the solution was measured by an ultraviolet spectrophotometer. […]

[2] = test system: matrix metalloproteinase-1 (MMP-1) mRNA in human aortic endothelial cells (HAEC); test: MMP-1 mRNA level detection (RT-PCR) in palmitic acid-induced inflammation of human aortic endothelial cells; conditions: 500 μM palmitic acid 24 h, versus control group, HAEC (FIG. 1)
Method: as §2, §3, §4

[3] = test system: mitochondrial complex I in human aortic endothelial cells; test: Western blot of mitochondrial complex I expression in palmitic acid-treated human aortic endothelial cells; conditions: 500 μM palmitic acid 24 h alone, versus control, HAEC, Western blot (FIG. 2A, 2B)
Method: (§1) Human aortic endothelial cells (HAEC) were purchased from Shanghai Baili Biotechnology Co., Ltd. Palmitic acid was purchased from SIGMA Company. The cells were cultured in a constant-temperature, humidified, sterile incubator. The experiments were performed in three experiment groups: I. control; II. 500 μM palmitic acid treatment; and III. composition protecting. In each of the three experiment groups, the cells were respectively cultured at an atmosphere of 95% air and 5% CO2 at 37° C. in wells of a 12-well cell culture plate for the following mRNA level detection, and in wells of a 6-well cell culture plate for the following protein detection. After the cell density of the three experiment groups were all cultured to 40% to 50%, the composition was added to the cells of group III. […] The supernatants were collected, and the proteins therein were quantified by bicinchoninic acid (BCA) assay, and normalized. […] Target proteins were detected by chemiluminescence. Referring to FIG. 1 to FIG. 3, the data obtained in the above-described experiments, for the amount of the mRNA and the proteins, were expressed in the diagrams in form of mean±SEM (SEM is standard error of mean), and the data were analyzed by using One-way ANOVA analysis method with statistical significance p values of * meaning p<0.05, ** meaning p<0.01, *** meaning p<0.001. […]

[4] = test system: mitochondrial complex III in human aortic endothelial cells; test: Western blot of mitochondrial complex III expression in palmitic acid-treated human aortic endothelial cells; conditions: 500 μM palmitic acid 24 h alone, versus control, HAEC, Western blot (FIG. 2A, 2B)
Method: as §1

[5] = test system: FoxO1 protein in human aortic endothelial cells; test: Western blot of FoxO1 protein expression in palmitic acid-treated human aortic endothelial cells; conditions: 500 μM palmitic acid 24 h alone, versus control, HAEC
Method: as §1

CCCCCCCCCCCCCCCC(=O)O [palmitic acid]
increase of mRNA level corresponding to IL-6 [1]: about 12 times
increase of mRNA level corresponding to MMP-1 [2]: about 5 times
expression of mitochondrial complex I [3]: reducing
expression of mitochondrial complex III [4]: reducing
expression of FoxO1 [5]: reducing
